Laboratory results taken from patent US11109593B2, “Isoxazolin-5-one derivative and herbicide containing same as active ingredient” (HOKKO CHEMICAL INDUSTRY CO., LTD., priority 2017, dated 2021).

What was measured:
Format in all cases: in vivo
Scirpus juncoides [1] = assay: Test Example 2: herbicidal effect test by treatment during growing period in paddy rice cultivation (seven days after seeding); settings: 120 g/10a active ingredient, assessed 14 days after treatment, dry weight vs untreated area
Method in brief: (§1)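 Post-emergence paddy water application: compounds were formulated as emulsions, diluted and dropped into flooded pots seven days after sowing at a rate equivalent to 120 g per 10 ares. Efficacy was taken as dry-weight reduction relative to untreated controls after 14 days.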

Echinochloa crus-galli [2] = assay: as above; settings: 120 g/10a active ingredient, assessed 14 days after treatment, dry weight vs untreated area
Method in brief: as §1

[3] = system: broad leaf weeds (Lindernia pyxidaria and Monochoria vaginalis); assay: as above; settings: 120 g/10a active ingredient, assessed 14 days after treatment, dry weight vs untreated area
Method in brief: as §1

Amaranthus viridis = assay: Test Example 3: herbicidal effect test by treatment of dry field farming soil (one day after seeding); settings: 120 g/10a active ingredient, evaluated 14 days after treatment
Experimental: (§2) This test was conducted in a double system per one agent solution concentration area, and the herbicidal rates (%) were determined by the following equation (Math. 1) on 14 days after the treatment with the agents. Herbicidal Rate (%)={1-(Average Dry Weight (g) of Plant of Treated Area)/(Average Dry Weight (g) of Plant of Untreated Area)}×100 [Math. 1]
(§3) Herbicidal Effect Test by Treatment of Dry Field Farming Soil
(§4) Pots with a size of 36 cm^2 were filled with a dry field farming soil (alluvium). The soil of the top layer of 1 cm and seeds of weeds, namely southern crabgrass, Echinochloa crus-galli, Chenopodium album and Amaranthus viridis, 20 seeds each, were evenly mixed, and the top layer was gently pressed. Emulsions prepared using the compounds in Table 5 below according to Formulation Example 5 were diluted with water one day after seeding, and the water-diluted agent solutions were sprayed to the soil surfaces at a ratio of 100 liters per 10 ares. The converted amount of the applied active ingredient corresponded to 120 g per 10 ares. The herbicidal effects were evaluated by the same standard as that in Test Example 1 on 14 days after the treatment with the agents. […] The compound numbers in Table 5 are the same as those in Table 1 and Table 2 above.

Echinochloa crus-galli [4] = assay: as above; settings: 120 g/10a active ingredient, evaluated 14 days after treatment
Experimental: as §2, §3, §4

Chenopodium album = assay: as above; settings: 120 g/10a active ingredient, evaluated 14 days after treatment
Experimental: as §2, §3, §4

southern crabgrass = assay: as above; settings: 120 g/10a active ingredient, evaluated 14 days after treatment
Experimental: as §2, §3, §4

Scirpus juncoides [5] = assay: Test Example 1: herbicidal effect test by treatment of rice paddy soil (immediately after seeding); settings: 120 g/10a active ingredient, dry weight vs untreated area, 14 days after treatment
Method in brief: (§5)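 Applied at 120 g a.i./10 ares as diluted emulsion dropped into flooded (~3 cm) paddy soil pots right after sowing seeds 0–1 cm deep; greenhouse, two replicates. At day 14, dry weight of treated versus untreated plants gives % herbicidal rate.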

Echinochloa crus-galli [6] = assay: as above; settings: 120 g/10a active ingredient, dry weight vs untreated area, 14 days after treatment
Method in brief: as §5

[7] = system: broad leaf weeds (Lindernia pyxidaria and Monochoria vaginalis); assay: as above; settings: 120 g/10a active ingredient, dry weight vs untreated area, 14 days after treatment
Method in brief: as §5

Row | SMILES | Herbicidal rate (%) Scirpus juncoides (Scirpus juncoides [1]) [%] | Herbicidal rate (%) Echinochloa crus-galli (Echinochloa crus-galli [2]) [%] | Herbicidal rate (%) Lindernia pyxidaria [3] [%] | Herbicidal rate (%) Monochoria vaginalis [3] [%] | herbicidal rate, Amaranthus viridis (Amaranthus viridis) [%] | herbicidal rate, Echinochloa crus-galli (Echinochloa crus-galli [4]) [%] | herbicidal rate, Chenopodium album (Chenopodium album) [%] | herbicidal rate, southern crabgrass (southern crabgrass) [%] | Herbicidal rate (%) Scirpus juncoides (Scirpus juncoides [5]) [%] | Herbicidal rate (%) Echinochloa crus-galli (Echinochloa crus-galli [6]) [%] | Herbicidal rate (%) Lindernia pyxidaria [7] [%] | Herbicidal rate (%) Monochoria vaginalis [7] [%]
1 | Cc1c(Cc2ccccc2N(S(=O)(=O)C(F)(F)F)S(=O)(=O)C(F)(F)F)c(=O)on1CCCc1ccccc1 [Compound 1-1048] | 40 | 90 | 60 | 60 | 40 | 40 | 40 | 0 | 80 | 90 | 80 | 60
2 | Cc1c(Cc2ccccc2N(C(=O)OCC(C)C)S(=O)(=O)C(F)(F)F)c(=O)on1C(C)C [Compound 1-667] | 90 | 90 | 90 | 90 | 80 | 90 | 90 | 80 | 90 | 90 | 90 | 90
3 | Cc1c(Cc2ccccc2NS(=O)(=O)C(F)(F)F)c(=O)on1C(C)c1ccc(Cl)cc1 (stereo not shown) [Compound 1-207] | 70 | 60 | 60 | 70 | – | – | – | – | 90 | 100 | 100 | 100
4 | CSCCCn1oc(=O)c(Cc2ccccc2NS(=O)(=O)C(F)(F)F)c1C [Compound 1-167] | 90 | 90 | 90 | 90 | – | – | – | – | 90 | 100 | 90 | 80
5 | Cc1c(Cc2ccccc2NS(=O)(=O)C(F)(F)F)c(=O)on1Cc1ccc(F)cc1Cl [Compound 1-201] | 40 | 40 | 70 | 70 | – | – | – | – | 100 | 90 | 90 | 80
6 | CCCCCCCCn1oc(=O)c(Cc2ccccc2N(S(=O)(=O)C(F)(F)F)S(=O)(=O)C(F)(F)F)c1C [Compound 1-981] | 40 | 90 | 50 | 40 | – | – | – | – | 70 | 80 | 60 | 50
7 | CCN(c1ccccc1Cc1c(C)n(CC(C)C)oc1=O)S(=O)(=O)C(F)(F)F [Compound 1-263] | 90 | 90 | 40 | 60 | – | – | – | – | 60 | 50 | 80 | 50
